# Experimental data reported in paper PMC5152921, “Evolutionary and Functional Diversification of the Vitamin D Receptor-Lithocholic Acid Partnership” (PLoS ONE, 2016).
# Key:
# Zebrafish VDRβ [1] = biological target: T1, Zebrafish VDRβ (Danio rerio, UniProt Q1L673); test: Mammalian 2-hybrid assay (VDR-coregulator interaction, HepG2); type: cell-based; parameters: expressed in transfected cells; host or cells: HepG2; details: 100 μM LCA
# T1 sequence (Q1L673 1-422): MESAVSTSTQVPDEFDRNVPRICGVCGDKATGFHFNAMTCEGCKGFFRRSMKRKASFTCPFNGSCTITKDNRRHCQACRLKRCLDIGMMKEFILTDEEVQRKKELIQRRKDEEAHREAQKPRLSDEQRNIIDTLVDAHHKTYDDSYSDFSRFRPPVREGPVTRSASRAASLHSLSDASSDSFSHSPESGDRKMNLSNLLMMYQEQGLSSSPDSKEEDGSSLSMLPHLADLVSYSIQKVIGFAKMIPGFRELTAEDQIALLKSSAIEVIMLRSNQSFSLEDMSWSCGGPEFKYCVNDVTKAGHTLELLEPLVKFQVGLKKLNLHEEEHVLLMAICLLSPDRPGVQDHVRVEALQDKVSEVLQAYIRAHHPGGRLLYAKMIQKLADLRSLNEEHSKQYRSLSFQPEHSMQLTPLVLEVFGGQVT
# Source text: Prey constructs included full-length VDRs fused to the herpes simplex VP16 activation domain (pVP16-VDR). Bait constructs consisted of either full-length wild-type human RXR (pM-RXRWT), a truncated human RXR mutant (pM-RXRAF2), or the defined NR box of each member of the SRC/p160 family (pM-SRC1_241-386, pM-GRIP1_479-767, or pM-ACTR392-1005) fused to the yeast Gal4 DNA-binding domain. Reporters included the Gal4 luciferase reporter (5xGal4-TATA-Luc) and pRL-CMV as an internal luciferase control.
# HepG2 cells were seeded into 96-well tissue culture plates as described above and transfected with Lipofectamine 2000 the following day. Each well received 33.6 ng pVP16-VDR, 33.6 ng pM-coregulator (where indicated), 126.6 ng 5XGal4-TATA-Luc, and 3 ng pRL-CMV. […] Positive controls were treated with 1,25D3 and vehicle controls were treated with ethanol. Luciferase activity was measured 24 hours post-exposure using the Dual-Glo Luciferase Assay System described above. Raw luciferase data were normalized to the pRL-CMV luciferase control. VDR-coregulator response was normalized to the pVP16-VDR in the absence of bait constructs. Results were analyzed using a two-way ANOVA followed by Bonferroni’s multiple comparisons test in Prism (GraphPad Inc, San Diego, CA). All experiments were replicated 3 times and conducted as groups of 4 replicate wells.
# Zebrafish VDRβ [2] = biological target: T1, Zebrafish VDRβ; test: Transient transactivation assay (XREM-Luc, HepG2); type: cell-based; parameters: expressed in transfected cells; host or cells: HepG2; details: 100 μM LCA; co-transfected human RXRWT; vs VDR alone
# Experimental: HepG2 cells (American Type Culture Collection #HB-8065) were cultured in T75 flasks with vented caps (Corning Life Sciences, Corning, NY) using Minimum Essential Medium (MEM) with phenol red supplemented with 10% fetal bovine serum, 1 mM sodium pyruvate, and 1X MEM non-essential amino acids. Cells were maintained following standard protocols in a 5% CO2 incubator set at 37°C, and split when 80–90% confluent.
# For the transient transactivation assays, HepG2 cells were seeded in 96-well tissue culture plates at a density of 2.5x10^4 cells per well in complete phenol red-free MEM, and allowed to recover overnight. Transfections were performed the following day using Lipofectamine 2000 (Life Technologies, Grand Island, NY) as described previously. […] LCA-mediated VDR transactivation (fold activation) was calculated as the ratio of the VDR luciferase response relative to the empty vector control. […] VDR response in the absence of coregulators was analyzed using a 1-way ANOVA followed by Dunnett’s multiple comparisons test. To examine the effects of different coregulators on VDR activation, data were analyzed using a 2-way ANOVA followed by Bonferroni’s multiple comparisons test in GraphPad Prism (GraphPad Inc, San Diego, CA).
# Zebrafish VDRβ [3] = biological target: T1, Zebrafish VDRβ; test: Competitive ligand binding assay ([3H]-1,25D3 displacement); parameters: 89.7 ng/well of full-length pSG5-VDR was co-transfected; expressed in transfected cells; host or cells: COS7; details: lysate with VDR and human RXRWT; 4 nM [3H]-1,25D3; 18 hours at 4°C; Cheng-Prusoff; mean ± SEM
# Experimental: Recombinant VDR and human RXRWT lysates were prepared from transfected COS7 cells (American Type Culture Collection #CRL-1651) as described in detail previously. Lysates were diluted 10-fold in ice-cold assay buffer (10 mM Tris HCl, 150 mM KCl, 1 mM EDTA, 0.3 mM ZnCl2, 5 mM DTT, and 1x protease inhibitor cocktail (100 μM AEBSF, 80 nM aprotinin, 5 μM bestatin, 1.5 μM E-64 (for cysteine proteases), 2 μM leupeptin, 1 μM pepstatin A), pH 7.5). […] Reactions were shaken to mix and incubated for 18 hours at 4°C. Bound and free ligand were separated with the addition of 80 μL of ice-cold separation buffer (2.5% (w/v) activated charcoal, 0.5% (w/v) dextran, 100 mM Na2HPO4, 39 mM NaH2PO4, 150 mM NaCl, 15 mM NaN3, 10% gelatin, pH 7.0), and incubated at 4°C for 15 minutes with shaking every 5 minutes. Reactions were centrifuged at 5,000 x g for 5 minutes at 4°C, and 200 μL of the supernatant containing the VDR-bound ligands was removed for scintillation counting.
# Total binding was determined using lysate from cells transfected with VDR, and nonspecific binding was determined using lysate from cells transfected with the empty pSG5 vector. Specific binding was determined by subtracting non-specific binding counts from the total binding counts.
structure (smiles),measurement,setting,value
"C[C@H](CCC(=O)O)[C@H]1CC[C@H]2[C@@H]3CC[C@@H]4C[C@H](O)CC[C@]4(C)[C@H]3CC[C@]12C [LCA, 5β-cholanic acid-3α-ol]",VDR-RXRWT interaction (heterodimerization),"Zebrafish VDRβ [1]; bait human RXRWT, presence and absence of SRC1",not observed
same,VDR-SRC1 interaction,Zebrafish VDRβ [1]; cotransfection of RXRWT,strong VDR-SRC1 interactions
same,Effect of exogenous human RXRWT on VDR transactivation,Zebrafish VDRβ [2],significantly enhanced transactivation
same,Ki,Zebrafish VDRβ [3],6.7 ± 1.9 µM
